PubChem BioAssay (NCI)
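Compound exposure: 48 hours, 5 concentrations, 96-well plates. GI50 marks 50% less growth. The concentration for full growth arrest is given as TGI.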

Experiments:
Test in all cases: growth of human tumour cells (NCI), 48 h
[1] = system: LOX IMVI melanoma
[2] = system: SF-295 CNS
[3] = system: T-47D breast
[4] = system: HL-60(TB) leukemia
[5] = system: HCT-116 colon
[6] = system: SF-268 CNS
[7] = system: U251 CNS
[8] = system: ACHN renal
[9] = system: SK-OV-3 ovarian
[10] = system: MALME-3M melanoma

SMILES	GI50 [1]	TGI [1]	GI50 [2]	TGI [2]	GI50 [3]	TGI [3]	GI50 [4]	TGI [4]	GI50 [5]	TGI [5]	GI50 [6]	TGI [6]	GI50 [7]	TGI [7]	GI50 [8]	TGI [8]	GI50 [9]	TGI [9]	GI50 [10]	TGI [10]
Nc1ccc(-c2nc3ccc4[nH]ncc4c3c3c2CCCC3)cc1F	2000 nM	7800 nM	2850 nM	11100 nM	1200 nM	7770 nM	1240 nM	3420 nM	600 nM	5990 nM	1760 nM	19200 nM	1290 nM	8950 nM	316 nM	15500 nM	367 nM	2770 nM	1740 nM	6980 nM
Cc1ccc2c(c1)C(=O)c1c-2n(CCCN)c(=O)c2cc([N+](=O)[O-])ccc12	177 nM	829 nM	120 nM	663 nM	157 nM	461 nM	28.5 nM	327 nM	166 nM	718 nM	37.3 nM	555 nM	124 nM	832 nM	106 nM	609 nM	147 nM	502 nM	752 nM	1710 nM
